In US20200368249A1 (priority 2017, published 2020):
Several values for one entry are separate records, joined by “and”; a condition that tells them apart may be missing. Equal values may be shown once.

Assays:
EcTopo1 = EcTopo1 (Escherichia coli, UniProt P06612)
Description: (§1) In FIGS. 7A and 7B, R indicates relaxed circular DNA; PR indicates partially relaxed DNA; and SC indicates supercoiled DNA.

Mtb CDC1551 = assay: time-kill kinetic assay, Mtb; type: cell-based, M. tuberculosis; details: for mode of action against Mtb: actively replicating Mtb
Procedure: To examine whether bacterial killing is concentration and/or time-dependent, a time-kill kinetic study was carried out with 8, 10, 11, 14, and 15. For Mtb, CDC1551 cultures diluted to an OD of 0.01 in 7H9 were added to a solid-white 384-well plate containing compounds at final concentrations of 0, 1×, 4× and 8× MIC in a total volume of 30 μl. DMSO control was also included. The plate was incubated for 6 days for Mtb. At every time point-0, 24, 48 and 72 h post-inoculation, an aliquot was taken, serially diluted and 50 μl plated onto 7H10 quad-plates supplemented with OADC. Colonies were counted after 3-4 weeks of incubation at 37° C. and CFU/ml was calculated. […] The plate was incubated for 3 days and colonies were counted after 5 days of incubation following plating. A 1-2 log10 decrease in CFU/ml is considered bactericidal. Luminescence was also read at every time point before taking an aliquot for serial dilution.

[1] = reductive demetallation by glutathione; type: physicochemical
M. tuberculosis gyrase = M. tuberculosis gyrase (Mycobacterium tuberculosis, UniProt P9WG45+P9WG47)
Sequence of M. tuberculosis gyrase (P9WG45 whole entry, looked up): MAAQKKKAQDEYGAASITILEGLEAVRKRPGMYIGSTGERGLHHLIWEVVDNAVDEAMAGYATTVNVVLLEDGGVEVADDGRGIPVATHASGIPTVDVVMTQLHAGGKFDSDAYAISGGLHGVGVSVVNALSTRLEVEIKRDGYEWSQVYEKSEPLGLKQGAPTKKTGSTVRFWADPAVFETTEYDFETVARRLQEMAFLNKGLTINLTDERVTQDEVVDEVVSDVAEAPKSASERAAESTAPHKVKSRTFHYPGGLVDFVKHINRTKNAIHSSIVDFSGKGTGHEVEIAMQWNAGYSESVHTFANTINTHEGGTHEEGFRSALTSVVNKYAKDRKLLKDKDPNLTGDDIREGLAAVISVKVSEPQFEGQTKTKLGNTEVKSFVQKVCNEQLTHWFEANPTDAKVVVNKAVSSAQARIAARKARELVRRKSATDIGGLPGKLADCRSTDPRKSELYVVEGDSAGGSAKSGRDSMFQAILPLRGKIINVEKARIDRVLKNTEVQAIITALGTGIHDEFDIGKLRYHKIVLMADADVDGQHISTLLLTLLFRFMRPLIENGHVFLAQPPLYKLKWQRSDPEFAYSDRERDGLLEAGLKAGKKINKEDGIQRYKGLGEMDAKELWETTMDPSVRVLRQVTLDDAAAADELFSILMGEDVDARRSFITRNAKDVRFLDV
Sequence of M. tuberculosis gyrase (P9WG47 whole entry, looked up): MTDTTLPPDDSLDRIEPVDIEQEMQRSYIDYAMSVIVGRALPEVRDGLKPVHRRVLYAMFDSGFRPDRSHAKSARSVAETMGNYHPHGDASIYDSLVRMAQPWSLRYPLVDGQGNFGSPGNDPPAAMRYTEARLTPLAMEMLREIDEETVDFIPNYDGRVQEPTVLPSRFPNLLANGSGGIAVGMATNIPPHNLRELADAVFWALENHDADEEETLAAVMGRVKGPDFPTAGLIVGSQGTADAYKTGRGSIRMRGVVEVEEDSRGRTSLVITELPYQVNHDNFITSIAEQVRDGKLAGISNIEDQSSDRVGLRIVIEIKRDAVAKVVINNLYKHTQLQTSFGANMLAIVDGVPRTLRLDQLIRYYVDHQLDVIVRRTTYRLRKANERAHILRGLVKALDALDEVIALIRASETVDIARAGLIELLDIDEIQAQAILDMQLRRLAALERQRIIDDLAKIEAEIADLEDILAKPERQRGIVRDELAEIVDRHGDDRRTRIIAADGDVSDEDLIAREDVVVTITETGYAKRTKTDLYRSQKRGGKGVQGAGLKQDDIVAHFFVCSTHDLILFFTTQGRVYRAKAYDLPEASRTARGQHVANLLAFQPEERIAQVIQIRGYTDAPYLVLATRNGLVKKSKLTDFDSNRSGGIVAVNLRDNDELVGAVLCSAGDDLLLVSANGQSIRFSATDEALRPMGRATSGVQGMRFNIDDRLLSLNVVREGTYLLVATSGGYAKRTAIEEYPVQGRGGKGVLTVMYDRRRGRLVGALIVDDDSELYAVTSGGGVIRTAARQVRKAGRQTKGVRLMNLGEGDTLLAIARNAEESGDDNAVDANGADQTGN
Procedure: (§2) In FIG. 8A-FIG. 8D, the IC50 was determined as the drug concentration which inhibited 50% of the supercoiling activity.

[2] = test system: J774A.1 macrophage cell line; assay: cytotoxicity assay (resazurin); type: cell-based; details: J774 macrophages, 24 h
Procedure: Cytotoxicity was assessed on J774A.1 (ATCC® TIB67™) macrophage cell line. Macrophages were cultured in Dulbecco's Modified Eagle Medium (DMEM, GIBCO) supplemented with 10% heat inactivated fetal calf serum (Atlanta Biologicals), 1 mM sodium pyruvate (CellGro), 2 mM L-glutamine (CORNING) and 1% PenStrep (100 U/mL Penicillin, […] Streptomycin, GIBCO). Macrophages were seeded in a 384-well black transparent bottom plate (Corning) at 2.5×10^4 cells/well. After macrophages were allowed to adhere for 4-6 h, a two-fold dilution series of the compounds (200-0.006 μM) and controls (2% Triton X and 0.5% DMSO) were added to the wells. The plate was incubated for 24 h and then 1/10th volume of resazurin dye was added. Fluorescence was measured following 4 h incubation with the dye at an excitation of 560 nm and emission at 590 nm with cell viability indicated by conversion of resazurin to fluorescent product resofurin. Viability is determined as percent growth calculated relative to the DMSO control.

Mtb-lux = type: cell-based, M. tuberculosis CDC1551
E. coli gyrase = E. coli gyrase (Escherichia coli, UniProt P0AES4+P0AES6)
Sequence of E. coli gyrase (P0AES4 whole entry, one chain of several): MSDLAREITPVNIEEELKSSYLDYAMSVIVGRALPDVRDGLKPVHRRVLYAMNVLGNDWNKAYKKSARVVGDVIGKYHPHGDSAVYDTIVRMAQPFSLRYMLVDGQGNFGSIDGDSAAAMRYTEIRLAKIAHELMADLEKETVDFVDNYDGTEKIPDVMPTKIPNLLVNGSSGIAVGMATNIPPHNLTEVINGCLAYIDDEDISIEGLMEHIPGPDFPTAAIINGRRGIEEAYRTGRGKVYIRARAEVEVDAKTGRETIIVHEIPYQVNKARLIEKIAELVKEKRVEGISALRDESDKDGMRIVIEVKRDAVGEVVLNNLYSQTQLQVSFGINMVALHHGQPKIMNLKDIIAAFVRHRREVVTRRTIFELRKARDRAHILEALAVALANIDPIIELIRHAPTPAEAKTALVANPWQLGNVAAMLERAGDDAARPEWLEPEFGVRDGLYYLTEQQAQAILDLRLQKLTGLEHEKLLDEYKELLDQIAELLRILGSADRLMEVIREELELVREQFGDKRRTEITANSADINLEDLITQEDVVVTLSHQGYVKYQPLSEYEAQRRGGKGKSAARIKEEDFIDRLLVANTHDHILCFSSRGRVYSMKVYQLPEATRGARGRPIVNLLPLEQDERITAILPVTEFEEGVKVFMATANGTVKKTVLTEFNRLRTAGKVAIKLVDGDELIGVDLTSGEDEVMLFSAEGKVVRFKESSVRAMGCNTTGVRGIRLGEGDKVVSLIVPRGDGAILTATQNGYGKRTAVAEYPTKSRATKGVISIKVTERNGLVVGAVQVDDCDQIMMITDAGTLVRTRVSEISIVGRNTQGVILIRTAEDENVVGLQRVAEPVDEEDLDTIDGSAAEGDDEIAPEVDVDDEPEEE
Procedure: as §2

MtbTopo1 = MtbTopo1 (Mycobacterium tuberculosis, UniProt P9WG49); assay: topoisomerase 1A relaxation assay, MtbTopo1; type: biochemical, M. tuberculosis
Sequence of MtbTopo1 (P9WG49 whole entry, looked up): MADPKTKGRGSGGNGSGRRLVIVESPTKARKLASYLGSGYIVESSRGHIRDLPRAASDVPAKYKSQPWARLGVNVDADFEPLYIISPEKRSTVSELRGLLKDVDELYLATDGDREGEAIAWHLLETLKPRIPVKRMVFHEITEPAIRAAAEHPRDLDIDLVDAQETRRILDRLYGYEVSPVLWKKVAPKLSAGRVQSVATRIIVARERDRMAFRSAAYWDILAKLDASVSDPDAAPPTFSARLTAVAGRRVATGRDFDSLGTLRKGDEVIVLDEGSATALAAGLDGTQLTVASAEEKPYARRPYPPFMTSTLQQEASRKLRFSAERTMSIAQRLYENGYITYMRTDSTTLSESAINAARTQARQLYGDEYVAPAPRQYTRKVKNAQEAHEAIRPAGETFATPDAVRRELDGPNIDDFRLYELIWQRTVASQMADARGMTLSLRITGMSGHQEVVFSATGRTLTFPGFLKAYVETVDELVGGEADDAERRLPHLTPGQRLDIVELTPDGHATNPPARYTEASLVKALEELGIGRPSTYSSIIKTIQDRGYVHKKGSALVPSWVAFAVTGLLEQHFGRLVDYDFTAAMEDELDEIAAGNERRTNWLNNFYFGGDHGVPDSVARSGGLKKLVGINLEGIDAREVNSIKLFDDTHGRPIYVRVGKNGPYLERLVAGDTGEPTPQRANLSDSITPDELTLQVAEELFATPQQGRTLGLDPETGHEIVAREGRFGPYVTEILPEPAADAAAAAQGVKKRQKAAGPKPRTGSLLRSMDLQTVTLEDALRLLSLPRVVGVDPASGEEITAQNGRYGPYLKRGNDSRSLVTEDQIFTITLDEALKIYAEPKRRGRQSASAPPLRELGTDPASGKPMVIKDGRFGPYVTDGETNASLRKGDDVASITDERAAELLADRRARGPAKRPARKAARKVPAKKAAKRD
Description: as §1

tolerability of mice = type: in vivo; details: 400 mg/kg, preliminary work
Mab 390S-lux = type: cell-based, M. abscessus 390S
Mab = details: even at 32 and 64-fold MIC; cited from earlier work
Mtb = details: cited from earlier work

Sequence of EcTopo1 (P06612 whole entry): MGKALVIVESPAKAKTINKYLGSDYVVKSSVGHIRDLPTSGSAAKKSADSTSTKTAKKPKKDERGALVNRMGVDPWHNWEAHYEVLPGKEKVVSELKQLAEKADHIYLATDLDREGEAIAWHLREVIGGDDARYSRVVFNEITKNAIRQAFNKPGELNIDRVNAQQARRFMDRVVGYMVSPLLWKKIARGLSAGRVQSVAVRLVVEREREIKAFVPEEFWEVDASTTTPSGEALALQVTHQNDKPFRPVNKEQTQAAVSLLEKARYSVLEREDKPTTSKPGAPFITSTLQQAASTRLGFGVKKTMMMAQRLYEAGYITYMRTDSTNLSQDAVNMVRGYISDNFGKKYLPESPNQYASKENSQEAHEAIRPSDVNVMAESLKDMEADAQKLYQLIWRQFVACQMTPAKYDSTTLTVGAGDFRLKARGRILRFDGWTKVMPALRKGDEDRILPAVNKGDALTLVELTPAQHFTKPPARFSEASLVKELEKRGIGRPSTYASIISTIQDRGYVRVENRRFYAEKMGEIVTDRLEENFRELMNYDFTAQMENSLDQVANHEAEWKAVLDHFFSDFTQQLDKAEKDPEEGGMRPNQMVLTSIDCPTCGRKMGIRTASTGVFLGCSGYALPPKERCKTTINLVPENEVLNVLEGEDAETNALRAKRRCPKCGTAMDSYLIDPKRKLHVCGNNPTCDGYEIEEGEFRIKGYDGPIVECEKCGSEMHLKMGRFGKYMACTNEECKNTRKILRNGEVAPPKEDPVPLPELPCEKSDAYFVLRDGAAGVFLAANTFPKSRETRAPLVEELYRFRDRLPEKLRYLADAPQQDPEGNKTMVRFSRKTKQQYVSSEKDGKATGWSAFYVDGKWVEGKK

Structure (SMILES): C1=NCCCCN=Cc2ccc3[n]2[Au+][n]2c1ccc2-c1nc2ccccc2nc1-3.F[P-](F)(F)(F)(F)F [Compound 10]
- inhibition of topoisomerase I (EcTopo1 relaxation) (EcTopo1): able to inhibit topoisomerase I
- mode of action against Mtb (Mtb CDC1551): almost completely bacteriostatic
- decrease relative to vehicle control (Mtb CDC1551; at 64-fold MIC): 1 log
- loss of the Au(III) ion [1]: cannot be lost since it is very tightly bound
- activity against topoisomerase II (M. tuberculosis gyrase supercoiling) (M. tuberculosis gyrase): neither had significant activity
- IC50 [2]: 85.8 µM
- MIC Mtb (Mtb-lux): 0.12 µM
- activity against topoisomerase II (E. coli gyrase supercoiling) (E. coli gyrase): neither had significant activity
- inhibition of topoisomerase I (MtbTopo1 relaxation) (MtbTopo1): able to inhibit topoisomerase I
- tolerability (tolerability of mice): tolerated
- MIC Mab (Mab 390S-lux): 5.4 µM and 5.44 µM

Structure (SMILES): C1=NCCCN=Cc2ccc3[n]2[Au+][n]2c1ccc2-c1nc2ccccc2nc1-3.F[P-](F)(F)(F)(F)F [Compound 8]
- IC50 [2]: 48.5 µM
- MIC Mtb (Mtb-lux): 2.72 µM
- MIC Mab (Mab 390S-lux): 849.41 µM

Structure (SMILES): ClC1CN=Cc2ccc3[n]2[Au+][n]2c(ccc2-c2nc4ccccc4nc2-3)C=NC1.F[P-](F)(F)(F)(F)F (centres unmarked) [Compound 11]
- decrease in CFU/mL, early time-point (Mtb CDC1551; 24 h): > 1 log
- mode of action, latest time-point (Mtb CDC1551; 144 h, at 8, 4 and 2-fold MIC): bacteriostatic
- IC50 [2]: 108 µM
- MIC Mtb (Mtb-lux): 4.06 µM
- MIC Mab (Mab 390S-lux): 91.72 µM

Structure (SMILES): NCC[C@H](O)C(=O)N[C@@H]1C[C@H](N)[C@@H](O[C@H]2O[C@H](CN)[C@@H](O)[C@H](O)[C@H]2O)[C@H](O)[C@H]1O[C@H]1O[C@H](CO)[C@@H](O)[C@H](N)[C@H]1O [amikacin]
- bactericidal activity against Mab in vitro (Mab): poor bactericidal activity

Structure (SMILES): CCOC1CN=Cc2ccc[n]2[Au+][n]2cccc2C=NC1.F[P-](F)(F)(F)(F)F (centres unmarked) [Compound 15]
- mode of action against Mtb (Mtb CDC1551): rapid and potent bactericidal activity
- IC50 [2]: 48.9 µM
- MIC Mtb (Mtb-lux): 4.61 µM
- MIC Mab (Mab 390S-lux): 13.05 µM

Structure (SMILES): CC[C@H]1OC(=O)[C@H](C)[C@@H](O[C@H]2C[C@@](C)(OC)[C@@H](O)[C@H](C)O2)[C@H](C)[C@@H](O[C@@H]2O[C@H](C)C[C@H](N(C)C)[C@H]2O)[C@](C)(OC)C[C@@H](C)C(=O)[C@H](C)[C@@H](O)[C@]1(C)O [clarithromycin]
- bactericidal activity against Mab in vitro (Mab): poor bactericidal activity

Structure (SMILES): CC(=O)OC[C@H]1O[C@@H]([S-])[C@H](OC(C)=O)[C@@H](OC(C)=O)[C@@H]1OC(C)=O.CCP(CC)CC.[Au+] [auranofin]
- activity against Mtb (Mtb): bactericidal
